Data reported in PMC5218480 (PLoS ONE, 2017).

Tested on: MV-4-11 cells
Assay: Gene expression microarray analysis (Affymetrix PrimeView) and GSEA
Format: cell-based, human
Set-up: RFU PODN (11730768_x_at) / Fold change /veh PODN (11730768_x_at) / RFU LINC00158 (11744669_a_at) / Fold change /veh LINC00158 (11744669_a_at) / RFU DUSP10 (11751237_a_at) / Fold change /veh DUSP10 (11751237_a_at) / RFU ID3 (11757404_x_at) / Fold change /veh ID3 (11757404_x_at) / RFU PLEKHG5 (11737974_s_at) / Fold change /veh PLEKHG5 (11737974_s_at) / RFU LRRC4B (11730491_at) / Fold change /veh LRRC4B (11730491_at) / RFU GIMAP4 (11747438_a_at) / Fold change /veh GIMAP4 (11747438_a_at) / RFU KRT8 (11758183_x_at) / Fold change /veh KRT8 (11758183_x_at) / RFU CNN1 (11734310_a_at) / Fold change /veh CNN1 (11734310_a_at) / RFU VPS37D (11726825_at) / Fold change /veh VPS37D (11726825_at) / RFU C10orf10 (11716522_x_at) / Fold change /veh C10orf10 (11716522_x_at) / RFU KIR2DL2 /// KIR2DL4 /// KIR2DL5A /// KIR2DL5B /// KIR2DS1 /// KIR2DS2 /// KIR2DS3 /// KIR2DS4 /// KIR3DL3 /// KIR3DL3 /// KIR3DS1 (11738374_at) / Fold change /veh KIR2DL2 /// KIR2DL4 /// KIR2DL5A /// KIR2DL5B /// KIR2DS1 /// KIR2DS2 /// KIR2DS3 /// KIR2DS4 /// KIR3DL3 /// KIR3DL3 /// KIR3DS1 (11738374_at) / RFU C1QL1 (11718748_at) / Fold change /veh C1QL1 (11718748_at) / RFU TMPRSS4 (11747572_a_at) / Fold change /veh TMPRSS4 (11747572_a_at) / RFU HAMP (11756126_x_at) / Fold change /veh HAMP (11756126_x_at) / RFU RNFT2 (11725882_a_at) / Fold change /veh RNFT2 (11725882_a_at) / RFU NR4A2 (11747474_a_at) / Fold change /veh NR4A2 (11747474_a_at) / RFU ABCC12 (11746883_a_at) / Fold change /veh ABCC12 (11746883_a_at) / RFU TMEM136 (11760407_x_at) / Fold change /veh TMEM136 (11760407_x_at) / RFU CLDN22 /// WWC2 (11732394_at) / Fold change /veh CLDN22 /// WWC2 (11732394_at) / RFU HLA-DPB1 (11760878_x_at) / Fold change /veh HLA-DPB1 (11760878_x_at) / RFU SPINT1 (11716480_a_at) / Fold change /veh SPINT1 (11716480_a_at) / RFU GAP43 (11754022_s_at) / Fold change /veh GAP43 (11754022_s_at) / RFU A4GNT (11735810_at) / Fold change /veh A4GNT (11735810_at) / RFU PRB3 (11715151_x_at) / Fold change /veh PRB3 (11715151_x_at) / RFU TUBB4B (11761932_at) / Fold change /veh TUBB4B (11761932_at) / RFU CAPN14 (11732068_a_at) / Fold change /veh CAPN14 (11732068_a_at) / RFU TMCC2 (11721928_a_at) / Fold change /veh TMCC2 (11721928_a_at) / RFU IRGQ (11745062_a_at) / Fold change /veh IRGQ (11745062_a_at) / RFU FAM174B (11720279_a_at) / Fold change /veh FAM174B (11720279_a_at) / RFU TMPRSS4 (11748680_a_at) / Fold change /veh TMPRSS4 (11748680_a_at) / RFU FAM212B (11763350_a_at) / Fold change /veh FAM212B (11763350_a_at) / RFU PLEKHG5 (11743358_a_at) / Fold change /veh PLEKHG5 (11743358_a_at) / RFU ZSCAN30 (11745921_a_at) / Fold change /veh ZSCAN30 (11745921_a_at) / RFU CMKLR1 (11741424_a_at) / Fold change /veh CMKLR1 (11741424_a_at) / RFU LOC101060620 /// MAPK8IP1 (11723275_at) / Fold change /veh LOC101060620 /// MAPK8IP1 (11723275_at) / RFU SPTSSB (11747773_x_at) / Fold change /veh SPTSSB (11747773_x_at) / RFU PRSS12 (11739890_at) / Fold change /veh PRSS12 (11739890_at) / RFU BIN1 (11741810_x_at) / Fold change /veh BIN1 (11741810_x_at) / RFU WNT11 (11732464_a_at) / Fold change /veh WNT11 (11732464_a_at) / RFU C10orf10 (11716521_a_at) / Fold change /veh C10orf10 (11716521_a_at) / RFU C5orf56 (11738089_at) / Fold change /veh C5orf56 (11738089_at) / RFU CYB561 (11721691_x_at) / Fold change /veh CYB561 (11721691_x_at) / RFU ANKRD19P (11752326_a_at) / Fold change /veh ANKRD19P (11752326_a_at) / RFU OR2T12 /// OR2T33 /// OR2T8 (11738714_s_at) / Fold change /veh OR2T12 /// OR2T33 /// OR2T8 (11738714_s_at) / RFU VCAN (11748164_a_at) / Fold change /veh VCAN (11748164_a_at) / RFU JSRP1 (11732532_at) / Fold change /veh JSRP1 (11732532_at) / RFU KRTAP10-11 (11738290_x_at) / Fold change /veh KRTAP10-11 (11738290_x_at) / RFU MYO3A (11730013_a_at) / Fold change /veh MYO3A (11730013_a_at) / RFU EBF3 (11725865_a_at) / Fold change /veh EBF3 (11725865_a_at) / RFU CAMK2N1 (11719241_x_at) / Fold change /veh CAMK2N1 (11719241_x_at) / RFU C5orf56 (11738088_a_at) / Fold change /veh C5orf56 (11738088_a_at) / RFU OLFML3 (11715873_a_at) / Fold change /veh OLFML3 (11715873_a_at) / RFU LOC100653217 /// NTM (11731650_a_at) / Fold change /veh LOC100653217 /// NTM (11731650_a_at) / RFU MAPK11 (11762145_a_at) / Fold change /veh MAPK11 (11762145_a_at) / RFU FIZ1 (11724087_x_at) / Fold change /veh FIZ1 (11724087_x_at) / RFU OASL (11726364_x_at) / Fold change /veh OASL (11726364_x_at) / RFU SOX15 (11748057_x_at) / Fold change /veh SOX15 (11748057_x_at) / RFU CD79A (11719716_a_at) / Fold change /veh CD79A (11719716_a_at) / RFU HIST1H1D (11736915_at) / Fold change /veh HIST1H1D (11736915_at) / RFU CASKIN2 (11723855_a_at) / Fold change /veh CASKIN2 (11723855_a_at) / RFU LOC730098 (11760151_x_at) / Fold change /veh LOC730098 (11760151_x_at) / RFU OR4N2 (11742367_at) / Fold change /veh OR4N2 (11742367_at) / RFU PRRT2 (11749266_a_at) / Fold change /veh PRRT2 (11749266_a_at) / RFU SNX32 (11753110_a_at) / Fold change /veh SNX32 (11753110_a_at) / RFU CDHR5 (11726645_a_at) / Fold change /veh CDHR5 (11726645_a_at) / RFU RCAN1 (11760418_a_at) / Fold change /veh RCAN1 (11760418_a_at) / RFU FAM167A (11723789_a_at) / Fold change /veh FAM167A (11723789_a_at) / RFU FAM26E (11764081_at) / Fold change /veh FAM26E (11764081_at) / RFU ISYNA1 (11749810_s_at) / Fold change /veh ISYNA1 (11749810_s_at) / RFU ACY1 (11761880_at) / Fold change /veh ACY1 (11761880_at) / RFU 11764098_at / Fold change /veh 11764098_at / RFU SAMD14 (11745864_x_at) / Fold change /veh SAMD14 (11745864_x_at) / RFU NPB (11741838_a_at) / Fold change /veh NPB (11741838_a_at) / RFU TMPRSS6 (11731388_a_at) / Fold change /veh TMPRSS6 (11731388_a_at) / RFU KRTAP10-2 (11738614_at) / Fold change /veh KRTAP10-2 (11738614_at) / RFU ARHGAP8 /// PRR5-ARHGAP8 (11727945_x_at) / Fold change /veh ARHGAP8 /// PRR5-ARHGAP8 (11727945_x_at) / RFU KRTAP5-7 /// NADSYN1 (11734609_at) / Fold change /veh KRTAP5-7 /// NADSYN1 (11734609_at) / RFU RASL12 (11751679_a_at) / Fold change /veh RASL12 (11751679_a_at) / RFU CDKN2B (11736163_a_at) / Fold change /veh CDKN2B (11736163_a_at) / RFU PRF1 (11729649_at) / Fold change /veh PRF1 (11729649_at) / RFU, ZNF638 /// ZNF638-IT1 / Fold change vs veh, ZNF638 /// ZNF638-IT1 / RFU, PANK3 / Fold change vs veh, PANK3 / RFU, SH3YL1 / Fold change vs veh, SH3YL1 / RFU, ZEB2 / Fold change vs veh, ZEB2 / RFU, NRIP1 / Fold change vs veh, NRIP1 / RFU, PTTG1IP / Fold change vs veh, PTTG1IP / RFU, CAPN2 / Fold change vs veh, CAPN2 / RFU, MED14 / Fold change vs veh, MED14 / RFU, SNORA58 / Fold change vs veh, SNORA58 / RFU, C1orf63 / Fold change vs veh, C1orf63 / RFU, LRRFIP1 / Fold change vs veh, LRRFIP1 / RFU, NDUFAF7 / Fold change vs veh, NDUFAF7 / RFU, SLC12A2 / Fold change vs veh, SLC12A2 / RFU, IBTK / Fold change vs veh, IBTK / RFU, ESF1 / Fold change vs veh, ESF1 / Fold change vs veh, TMEM50B / RFU, TAOK1 / Fold change vs veh, TAOK1 / RFU, ACBD3 / Fold change vs veh, ACBD3 / RFU, TMA16 / Fold change vs veh, TMA16 / RFU, RWDD3 / Fold change vs veh, RWDD3 / RFU, BCAT1 / Fold change vs veh, BCAT1 / RFU, EDEM3 / Fold change vs veh, EDEM3 / RFU, TMEM33 / Fold change vs veh, TMEM33 / RFU, WDR75 / Fold change vs veh, WDR75 / RFU, AHCTF1 / Fold change vs veh, AHCTF1 / RFU, TFRC / Fold change vs veh, TFRC / RFU, ZDHHC17 / Fold change vs veh, ZDHHC17 / RFU, NOM1 / Fold change vs veh, NOM1 / RFU, ARL8B / Fold change vs veh, ARL8B / RFU, ZBTB11 / Fold change vs veh, ZBTB11 / RFU, TAMM41 / Fold change vs veh, TAMM41 / RFU, KIAA1704 /// LOC100996395 / Fold change vs veh, KIAA1704 /// LOC100996395 / RFU, ING1 / Fold change vs veh, ING1 / RFU, TRMT61B / Fold change vs veh, TRMT61B / RFU, FUBP3 / Fold change vs veh, FUBP3 / RFU, TP53 / Fold change vs veh, TP53 / RFU, TNKS2 / Fold change vs veh, TNKS2 / RFU, ZFP14 / Fold change vs veh, ZFP14 / RFU, ACTR2 / Fold change vs veh, ACTR2 / RFU, PPP3R1 / Fold change vs veh, PPP3R1 / RFU, PIK3R1 / Fold change vs veh, PIK3R1 / RFU, HNRNPA1 / Fold change vs veh, HNRNPA1 / RFU, RNF170 / Fold change vs veh, RNF170 / RFU, ZNF28 / Fold change vs veh, ZNF28 / RFU, RNGTT / Fold change vs veh, RNGTT / RFU, OGT / Fold change vs veh, OGT / RFU, BRD1 / Fold change vs veh, BRD1 / RFU, MARS / Fold change vs veh, MARS / RFU, ZNF655 / Fold change vs veh, ZNF655 / RFU, FAHD1 / Fold change vs veh, FAHD1 / RFU, BDP1 / Fold change vs veh, BDP1 / RFU, LRRCC1 / Fold change vs veh, LRRCC1 / RFU, ARID1A / Fold change vs veh, ARID1A / RFU, ZNF146 / Fold change vs veh, ZNF146 / RFU, ZNF330 / Fold change vs veh, ZNF330 / RFU, GPN3 / Fold change vs veh, GPN3 / RFU, C9orf123 / Fold change vs veh, C9orf123 / RFU, N4BP2L2 / Fold change vs veh, N4BP2L2 / RFU, ARFIP1 / Fold change vs veh, ARFIP1 / RFU, FAM179B / Fold change vs veh, FAM179B / RFU, BCL10 / Fold change vs veh, BCL10 / RFU, UHRF1BP1L / Fold change vs veh, UHRF1BP1L / RFU, BET1 / Fold change vs veh, BET1 / RFU, CNOT2 / Fold change vs veh, CNOT2 / RFU, ZNF268 / Fold change vs veh, ZNF268 / Fold change vs veh, ZNF507 / RFU, DGCR2 / Fold change vs veh, DGCR2 / RFU, WDSUB1 / Fold change vs veh, WDSUB1 / Fold change vs veh, HSP90B1 /// MIR3652 / RFU, ADSS / Fold change vs veh, ADSS / RFU, GK / Fold change vs veh, GK / RFU, ZNF148 / Fold change vs veh, ZNF148 / RFU, TAF9 / Fold change vs veh, TAF9 / RFU, SLC1A5 / Fold change vs veh, SLC1A5 / RFU, SLMO2 / Fold change vs veh, SLMO2 / RFU, ABCC4 / Fold change vs veh, ABCC4 / RFU, LOC101060439 /// RAP1B / Fold change vs veh, LOC101060439 /// RAP1B / RFU, RFX7 / Fold change vs veh, RFX7 / RFU, GTPBP10 / Fold change vs veh, GTPBP10 / RFU, CNEP1R1 / Fold change vs veh, CNEP1R1 / RFU, BIVM-ERCC5 /// ERCC5 / Fold change vs veh, BIVM-ERCC5 /// ERCC5 / RFU, ILF3 / Fold change vs veh, ILF3 / RFU 11762660_at / Fold change /veh 11762660_at / RFU VCAN (11757783_s_at) / Fold change /veh VCAN (11757783_s_at) / RFU DDX43 (11728927_at) / Fold change /veh DDX43 (11728927_at) / RFU KRT8 (11758188_x_at) / Fold change /veh KRT8 (11758188_x_at) / RFU NKD1 (11759106_at) / Fold change /veh NKD1 (11759106_at) / RFU SRD5A1 (11742802_a_at) / Fold change /veh SRD5A1 (11742802_a_at) / RFU TPSAB1 /// TPSB2 (11721975_s_at) / Fold change /veh TPSAB1 /// TPSB2 (11721975_s_at) / RFU GSTM3 (11746129_a_at) / Fold change /veh GSTM3 (11746129_a_at) / RFU IL23R (11737362_x_at) / Fold change /veh IL23R (11737362_x_at) / RFU TMEM51 (11727254_a_at) / Fold change /veh TMEM51 (11727254_a_at) / RFU PIWIL2 (11732686_x_at) / Fold change /veh PIWIL2 (11732686_x_at) / RFU ORM1 (11744905_x_at) / Fold change /veh ORM1 (11744905_x_at) / RFU CCDC152 (11743942_at) / Fold change /veh CCDC152 (11743942_at) / RFU ECM1 (11717891_a_at) / Fold change /veh ECM1 (11717891_a_at) / RFU IL23R (11748794_a_at) / Fold change /veh IL23R (11748794_a_at) / RFU TNFAIP8L3 (11732012_x_at) / Fold change /veh TNFAIP8L3 (11732012_x_at) / RFU MBOAT4 (11741988_at) / Fold change /veh MBOAT4 (11741988_at) / RFU 11764193_at / Fold change /veh 11764193_at / RFU TMEM53 (11763286_at) / Fold change /veh TMEM53 (11763286_at) / RFU MAGEB2 (11727129_at) / Fold change /veh MAGEB2 (11727129_at) / RFU TMEM200A (11744735_a_at) / Fold change /veh TMEM200A (11744735_a_at) / RFU CCDC152 (11751479_a_at) / Fold change /veh CCDC152 (11751479_a_at) / RFU FAM211A (11726209_a_at) / Fold change /veh FAM211A (11726209_a_at) / RFU RGS16 (11746705_a_at) / Fold change /veh RGS16 (11746705_a_at) / RFU VCAN (11755009_s_at) / Fold change /veh VCAN (11755009_s_at) / RFU RHOB (11743442_s_at) / Fold change /veh RHOB (11743442_s_at) / RFU RGS16 (11720943_a_at) / Fold change /veh RGS16 (11720943_a_at) / RFU RGS16 (11720944_at) / Fold change /veh RGS16 (11720944_at) / RFU, VPS4B / Fold change vs veh, VPS4B / RFU, CREB1 / Fold change vs veh, CREB1 / RFU, DNAJC13 / Fold change vs veh, DNAJC13 / RFU, GNAQ / Fold change vs veh, GNAQ / RFU, CDK5R1 / Fold change vs veh, CDK5R1 / RFU, ZRANB3 / Fold change vs veh, ZRANB3 / RFU, CUL4A / Fold change vs veh, CUL4A / RFU, CCNY / Fold change vs veh, CCNY / RFU, UFL1 / Fold change vs veh, UFL1 / RFU, COG3 / Fold change vs veh, COG3 / RFU, DIAPH2 / Fold change vs veh, DIAPH2 / RFU, SKA2 / Fold change vs veh, SKA2 / RFU, AFF3 / Fold change vs veh, AFF3 / RFU, LMF1 / Fold change vs veh, LMF1 / RFU, IPO11 / Fold change vs veh, IPO11 / RFU, DFFB / Fold change vs veh, DFFB / RFU, FOXP1 / Fold change vs veh, FOXP1 / RFU, CARD8 / Fold change vs veh, CARD8 / RFU, STRN3 / Fold change vs veh, STRN3 / RFU, ADK / Fold change vs veh, ADK / RFU, RASSF2 / Fold change vs veh, RASSF2 / RFU, WIPF1 / Fold change vs veh, WIPF1 / RFU, LARP1B / Fold change vs veh, LARP1B / RFU, RASA1 / Fold change vs veh, RASA1 / RFU, RB1 / Fold change vs veh, RB1 / RFU, PPFIA1 / Fold change vs veh, PPFIA1 / RFU, MAT2A / Fold change vs veh, MAT2A / RFU, CCT5 / Fold change vs veh, CCT5 / RFU, WDR92 / Fold change vs veh, WDR92 / RFU, CUX1 / Fold change vs veh, CUX1 / RFU, TTC7A / Fold change vs veh, TTC7A / RFU, TMEM135 / Fold change vs veh, TMEM135 / RFU, DEPTOR / Fold change vs veh, DEPTOR / RFU, CPM / Fold change vs veh, CPM / RFU, DNAJB6 / Fold change vs veh, DNAJB6 / RFU, CACNA2D3 / Fold change vs veh, CACNA2D3 / RFU, DTX4 / Fold change vs veh, DTX4 / RFU, TFCP2 / Fold change vs veh, TFCP2 / RFU, GMCL1 /// GMCL1P1 / Fold change vs veh, GMCL1 /// GMCL1P1 / RFU, AEBP2 / Fold change vs veh, AEBP2 / RFU, SNHG1 /// SNORD22 /// SNORD25 /// SNORD26 /// SNORD27 /// SNORD28 /// SNORD29 /// SNORD31 / Fold change vs veh, SNHG1 /// SNORD22 /// SNORD25 /// SNORD26 /// SNORD27 /// SNORD28 /// SNORD29 /// SNORD31 / Fold change (Aza/veh), C12orf56 (ProbeSet 11735607_a_at) / Fold change (ACY-1035/veh), C12orf56 (ProbeSet 11735607_a_at) / Fold change (Aza/veh), FGFR1OP (ProbeSet 11751329_s_at) / Fold change (ACY-1035/veh), FGFR1OP (ProbeSet 11751329_s_at) / Fold change (Aza/veh), VPS36 (ProbeSet 11739960_a_at) / Fold change (ACY-1035/veh), VPS36 (ProbeSet 11739960_a_at) / RFU SYPL1 (11715823_x_at) / Fold change /veh SYPL1 (11715823_x_at) / RFU IGFBP7 (11715501_s_at) / Fold change /veh IGFBP7 (11715501_s_at) / RFU REEP3 (11722064_at) / Fold change /veh REEP3 (11722064_at) / RFU IGLL1 (11728026_x_at) / Fold change /veh IGLL1 (11728026_x_at): dose or concentration left out as unconfirmed
Settings: ProbeSet 11729384_s_at; LIST D

Nc1ncn([C@@H]2O[C@H](CO)[C@@H](O)[C@H]2O)c(=O)n1 [azacitidine]
RFU, CCNY: 167.26 RFU
